Laboratory results from US8367726B2, “Acid salt of tolterodine having effective stability for transdermal drug delivery system” (SK Chemicals Co., Ltd., priority 2008, dated 2013).
Counter-ions that a name gives are not always drawn.

Tests used:
[1] = Stability test under oxidation condition (0.3% hydrogen peroxide solution, HPLC total related substances); type: physicochemical; conditions: room temperature, 24 hours, HPLC area ratio of total related substances
Description: (§1) This experiment is designed to confirm the storage stability of the various acid salts of tolterodine.
(§2) For a pharmaceutical drug to be processed into a certain formulation it is essential to be provided with sufficient storage stability. For example, for tablets or capsules, it is necessary for them to have stability in atmospheric condition, for injections, stability in moisture (water), and for patches, both stability in atmospheric condition and in moisture (water).

[2] = Alkali stability test (1M sodium hydroxide solution, HPLC total related substances); type: physicochemical; conditions: room temperature, 24 hours, HPLC area ratio of total related substances
Description: as §1, §2

[3] = Stability test under acid condition (HPLC total impurities); type: physicochemical; conditions: acid condition (details not described)
Description: as §1, §2

[4] = In vitro penetration test, Frantz cell mounted with hairless mouse skin; conditions: 10 mg/mL in propylene glycol, 32° C.
Experimental: I mL of tolterodine salt was added onto a Frantz cell, which was mounted with a hairless mouse skin. Then, the amount of tolterodine penetrated through the skin at 32° C. was quantitated and its cumulative amount was measured.

| Compound | Total impurities, oxidation condition [1] | Total impurities, alkali condition [2] | Total impurities, acid condition [3] | Cumulative amount of tolterodine penetrated through the skin ([4]; 0 hr) | Cumulative amount of tolterodine penetrated through the skin ([4]; 3 hr) | Cumulative amount of tolterodine penetrated through the skin ([4]; 6 hr) | Cumulative amount of tolterodine penetrated through the skin ([4]; 9 hr) | Cumulative amount of tolterodine penetrated through the skin ([4]; 12 hr) |
| --- | --- | --- | --- | --- | --- | --- | --- | --- |
| Cc1ccc(O)c(C(CCN(C(C)C)C(C)C)c2ccccc2)c1.O=C(O)c1ccc2ccccc2c1O (stereo not drawn) [tolterodine 1-hydroxy-2-naphtate, tolterodine 1-hydroxy-2-naphthate] | 0.33 % area | 0.15 % area | 0.10 % area | – | – | – | – | – |
| Cc1ccc(O)c([C@H](CCN(C(C)C)C(C)C)c2ccccc2)c1.O=C1CC[C@@H](C(=O)O)N1 [tolterodine L-pyroglutamate, Tolterodine L-Pyroglutamate] | 0.56 % area | 0.08 % area | 0.03 % area | – | – | – | – | – |
| Cc1ccc(O)c([C@H](CCN(C(C)C)C(C)C)c2ccccc2)c1.O=C(O)c1ccccc1 [tolterodine benzoate, Tolterodine Benzoate] | 0.39 % area | 0.10 % area | 0.02 % area | – | – | – | – | – |
| Cc1ccc(O)c([C@H](CCN(C(C)C)C(C)C)c2ccccc2)c1 [tolterodine free base, 2-[(1R)-3-(diisopropylamino)-1-phenylpropyl)-4-methylphenol, reference compound] | 4.74 % area | 0.83 % area | 0.59 % area | – | – | – | – | – |
| Cc1ccc(O)c([C@H](CCN(C(C)C)C(C)C)c2ccccc2)c1.O=C(O)c1cc(O)ccc1O [tolterodine gentisate, Tolterodine Gentisate] | 0.23 % area | 0.04 % area | 0.03 % area | – | – | – | – | – |
| Cc1ccc(O)c([C@H](CCN(C(C)C)C(C)C)c2ccccc2)c1.Cc1ccc(O)c([C@H](CCN(C(C)C)C(C)C)c2ccccc2)c1.O=S(=O)(O)c1cccc2c(S(=O)(=O)O)cccc12 [tolterodine hemi naphthalene-1,5-disulfonate] | 0.40 % area | 0.11 % area | 0.07 % area | – | – | – | – | – |
| Cc1ccc(O)c([C@H](CCN(C(C)C)C(C)C)c2ccccc2)c1.Cc1ccc(O)c([C@H](CCN(C(C)C)C(C)C)c2ccccc2)c1.O=C(O)CCCCC(=O)O [tolterodine hemiadipate, Tolterodine Hemiadipate] | 0.39 % area | 0.10 % area | 0.14 % area | – | – | – | – | – |
| Cc1ccc(O)c([C@H](CCN(C(C)C)C(C)C)c2ccccc2)c1.O=C(O)CNC(=O)c1ccccc1 [tolterodine hippurate, Tolterodine Hippurate] | 0.41 % area | 0.14 % area | 0.11 % area | – | – | – | – | – |
| CC1=C(/C=C/C(C)=C/C=C/C(C)=C/C(=O)O)C(C)(C)CCC1.Cc1ccc(O)c([C@H](CCN(C(C)C)C(C)C)c2ccccc2)c1 [tolterodine retinoate, Tolterodine Retinoate] | 0.08 % area | 0.19 % area | 0.15 % area | 0.0 µg | 0.5 µg | 1.7 µg | 2.5 µg | 4.1 µg |
| Cc1ccc(O)c([C@H](CCN(C(C)C)C(C)C)c2ccccc2)c1 [tolterodine tartrate, reference compound] | 0.98 % area | 0.29 % area | 0.20 % area | – | – | – | – | – |
| Tolterodine Benzene Sulfonate [tolterodine benzenesulfonate] | 0.51 % area | 0.08 % area | 0.02 % area | 0.0 µg | 0.0 µg | 0.4 µg | 0.8 µg | 1.7 µg |
| Tolterodine Glucolate | 0.44 % area | 0.23 % area | 0.11 % area | – | – | – | – | – |
| Tolterodine Toluene Sulfonate [tolterodine p-toluenesulfonate] | 0.09 % area | 0.06 % area | 0.11 % area | 0.0 µg | 1.1 µg | 8.0 µg | 19.9 µg | 36.6 µg |
